Laboratory results taken from patent US20100248321A1, “SURFACTANT AMENDMENTS FOR THE STIMULATION OF BIOGENIC GAS GENERATION IN DEPOSITS OF CARBONACEOUS MATERIALS” (LUCA Technologies, Inc., priority 2009, published 2010).

How the values were obtained:
[1] = tested on: coal samples from the Powder River Basin in Wyoming; assay: biogenic methane generation from coal samples after surfactant amendment; design: species or system microbial consortia present in coal and associated waters; conditions: after more than 100 days; headspace methane by gas chromatograph; surfactants tested at 0.05 to 0.5 g/L; 2.5 gram coal, 15 mL formation water
Experimental: (§1) Experiments were conducted to compare biogenic methane generation from coal samples after introducing an amendment of a surfactant. For each experiment, methane generation from coal samples from the Powder River Basin in Wyoming and shale samples from the Antrim Shale in Michigan was periodically measured over the course of more than 100 days. Each 2.5 gram coal sample or 5 g shale sample was placed in a 30 ml serum bottle with 15 mL of water that was also taken from the formation. The coal or shale and formation water were placed in the serum bottle while working in an anaerobic glove bag. The headspace in the bottle above the sample was flushed with a mixture of N2 and CO2 (95/5).
(§2) Amendments were then added to the samples. Surfactants were tested at concentrations of 0.05 to 0.5 g/L. Surfactants were tested alone and in combination with other amendments, including proteins (e.g., yeast extract), phosphate and acetate. The samples were then sealed, removed from the glove bag, and stored at a temperature close to the in situ temperature for the coal or shale samples over the course of the experiments.
(§3) The methane levels in the headspace above the samples was periodically measured and recorded. The methane was measured by running samples of the headspace gases through a gas chromatograph equipped with a thermal conductivity detector.

[2] = tested on: shale samples from the Antrim Shale in Michigan; assay: biogenic methane generation from shale samples after surfactant amendment; design: species or system microbial consortia present in shale and associated waters; conditions: after more than 100 days; headspace methane by gas chromatograph; surfactants tested at 0.05 to 0.5 g/L; 5 g shale, 15 mL formation water
Experimental: as §1, §2, §3

Row | Molecule | methane production in coal containing bottles [1] | methane production in shale containing bottles [2]
1 | CCCCOCCO [2-butoxyethanol] | highest levels of methane production | highest levels of methane production
2 | CCCCCCCC/C=C\CCCCCCCC(=O)N(C)CCS(=O)(=O)[O-].[Na+] [Geropon T-77] | highest levels of methane production | –
3 | Benzalkonium chloride | highest levels of methane production | –
